Source: publication PMC7377361, “Pressurized DNA state inside herpes capsids—A novel antiviral target” (PLoS Pathogens, 2020)
Where no end group is shown, it is not given here.

Legend:
free dsDNA = experiment: SAXS of free (bulk) DNA condensed by added compound; settings: free dsDNA in TM-buffer, N/P ratio 1.5, 15, 23 and 37°C
Excerpt: To determine if our DNA condensing compounds target pressurized intracapsid DNA in HSV-1 virions, we developed a three-step SAXS assay. In the first step, we confirmed the ability of compounds DAB-Am-4, bPEI 600, and Arg^5+ to condense the dsDNA in solution. We measured DNA-DNA spacing (ds) in bulk DNA solution in TM-buffer (i.e. free DNA without the capsid), where DNA is condensed by the added compound. This bulk DNA ds-measurement allows for quick prescreening with an in-house SAXS to determine if compounds are capable of binding to dsDNA and reducing DNA-DNA spacing below the physiologic ds-value for DNA packaged in a viral capsid (ds* = 31Å for HSV-1). […] The Bragg spacing, dBr, and the actual distance between helices, ds, are related by ds = 2dBr/sqrt(3) (see details in Materials and Methods). […] Compound concentrations were scaled proportionally with DNA concentration in the sample to correspond to the N/P ratio of 1.5, where N provides the number of positively charged amine groups on the polyamine compound, and P provides the number of negatively charged phosphate groups on the DNA. An N/P ratio of ~1–1.5 was previously shown to be sufficient for DNA condensation with polycationic amines.
For bulk DNA measurements with in-house SAXS, concentrated polycation solutions were added to 1 mg/mL free DNA in small increments of concentration. […]

HSV-1 C-capsids = experiment: Binding of GFP-HSV-1 C-capsids to nuclei of digitonin-permeabilized Vero cells (SR-SIM); assay type: cell-based
Experimental: This was verified with a fluorescently labeled nuclear localization signal (NLS), added to purified rat liver nuclei incubated with cytosolic extracts (as a source of soluble import factors) supplemented with an ATP regeneration system, see Supporting Materials for experimental description and S4A Fig. These controls were also reproduced with a digitonin-permeabilized cell assay, which accurately recapitulates capsid-nucleus binding and nuclear import in living cells; see Supporting Materials and data shown in S4B Fig. In agreement with observations in the isolated nuclei system (Fig 3B), we also confirmed via a digitonin-permeabilized cell assay that none of the three compounds interfered with capsid-NPC binding in cells. Attachment of GFP-capsids to nuclei was visualized with SR-SIM (S4C Fig). The addition of WGA prevented capsid binding, showing capsid-NPC binding specificity (S4C Fig).
To obtain cytosolic extracts as a source of soluble import factors, Vero cell monolayers (4 x 10^7 cells) were washed with ice-cold PBS and scraped off the plate into 5 ml of cold PBS. […] The samples were then processed for fluorescence imaging as described above. […]

Experimental for HFF-1 cells: In parallel, for each DNA condensing compound, we determined the cytotoxicity concentration (CC50 value) using standard in vitro cellular replication assays in human foreskin fibroblast (HFF) cells (used as a standard for herpesvirus replication in vitro assays for antiviral compound tests)[48]. Cytotoxicity assays were performed on a parallel set of six-well plates containing confluent monolayers of HFF-1 cells at the same cell amount as used for antiviral plaque reduction assays for EC50 value determination, but cells were uninfected[48].
Cytotoxicity assays were performed on a parallel set of six-well plates containing HFF-1 cells that received the same compound concentrations as used for the antiviral assays but remained uninfected. […]
Each compound was evaluated in a standard cytotoxicity assay by standard methods [100]. […] The optical density was then determined at 550 nm and CC50 values were interpolated from the experimental data.
The inhibition of either Vero cell or HFF-1 cell proliferation was used to refine estimates of cytotoxicity for the compounds and was performed according to standard procedures [101]. […] The plates were incubated for 72 h at 37°C; the cells were then dislodged with trypsin and counted on a Beckman Coulter Counter. […]

Compound | DNA-DNA interaxial spacing ds (free dsDNA) | binding of GFP-HSV-1 C-capsids to nuclei of permeabilized cells (HSV-1 C-capsids) | CC50 (HFF-1 cells) [µM]
NCCCN(CCCN)CCCCN(CCCN)CCCN [DAB-Am-4] | below 31 Å | not blocked | 15
RRRRR [Arg^5+] | below 31 Å | not blocked | 
